Values joined by “and” are separate entries in the source; they are usually repeats but may differ in a detail not shown here. Equal values may be shown once.
Key:
[1] = test system: bovine aortic endothelial cells; assay: Actin filaments and C-C adhesions in cultured endothelial cells; assay type: cell-based
living monkey eyes [2] = assay: Aqueous humor flow and corneal endothelial transfer coefficient ka by fluorophotometry; conditions: 42 μg LAT-A topical
[3] = test system: ciliary muscle-disinserted monkey eyes; assay: Outflow facility in ciliary muscle-disinserted eyes; assay type: in vivo, cynomolgus and rhesus monkeys
living monkey eyes [4] = assay: Blood-aqueous barrier permeability to systemic fluorescein; assay type: in vivo, cynomolgus monkeys (Macaca fascicularis); conditions: 42 μg LAT-A topical
Experimental: Topical LAT-A (42 μg) was given to one eye and vehicle to the opposite eye as described above, 1 hr prior to intravenous injection of fluorescein Na in the saphenous vein (10 mg/kg in 500-600 μl) followed by a 4 ml saline flush. The concentration of fluorescein ([fluorescein]) in the cornea and AC was determined by fluorophotometry 15, 30, 45, 60, 90, 120, 180 and 240 min after fluorescein injection.

living monkey eyes [5] = assay: Aqueous humor protein concentration (Lowry method); assay type: in vivo, cynomolgus monkeys (Macaca fascicularis); conditions: 42 μg LAT-A topical
Description: Approximately 5.5 hr after LAT-A and vehicle (25% DMSO) administration, or approximately 6.5 hr after LAT-B and vehicle (25% DMSO) administration, when AHF measurements had been completed, a sample of AH was obtained under a Zeiss surgical microscope, using a 30-gauge needle connected via polyethylene tubing to a tuberculin syringe. The needle was threaded through the corneal stroma for 6 mm, then directed into the AC so that the wound was self-sealing. AH entered the tubing by very gentle suction with the tuberculin syringe; only occasionally was brief mild pressure on the cornea with a needle holder required to promote the initial flow of AH into the tubing via the very thin needle. Approximately 60-80 μl of AH was removed, leaving a shallow but not completely flattened AC. In separate protocols with different monkeys, AH was similarly obtained 2 hr after 42 μg LAT-A or 1 hr after 4 μg LAT-B to one eye and vehicle to the opposite eye. The AH samples were stored at −20° C. for up to 24 hr. The protein concentration in each sample was assayed by the Lowry method, as known in the art (See e.g., Lowry et al., J. Biol. Chem., 193:265-275[1951]; and Peterson et al., Anal. Biochem., 100:201-220[1979]), in duplicate, and the result averaged. Duplicate sets of protein standards containing 0, 1, 3, 5, 10, 20, 40, or 60 μg bovine serum albumin (BSA) were assayed by the same method and results averaged and graphed to give a linear equation that was used to estimate the protein content in the AH samples. The optical density of each sample was measured at 660 nm using a Spectronic 20 Spectrophotometer (Bausch and Lomb).

C/C1=C/C(=O)O[C@@H]2C[C@@H](CC[C@H](C)/C=C\C=C\CC1)O[C@@](O)([C@@H]1CSC(=O)N1)C2 [LAT-A]
effects on actin filaments and C-C adhesions ([1]; concentrations greater than 0.5 μM, 1 hour of exposure): unequivocal effects
effects on actin filaments and C-C adhesions ([1]; lower concentrations): more subtle slower onset effects
relative difference in ka between first and second 3-hr intervals (living monkey eyes [2]): 27±12%
increase in ka (living monkey eyes [2]; first 3 hr): 106±16%
increase in apparent AHF relative to vehicle, adjusted for baseline (living monkey eyes [2]; first 3 hr, n=8): 87% and 87±13%
increase in ka (living monkey eyes [2]; overall, n=8): 94±9%
AHF, drug- vs vehicle-treated eyes (living monkey eyes [2]; second 3 hr): no significant differences
increase in ka (living monkey eyes [2]; second 3 hr): 68±10%
AHF Rx, LAT-A eye (living monkey eyes [2]; hour 0.5 to 3.0, n=8): 3.48 microliters per minutes
AHF Rx, LAT-A/Vehicle (living monkey eyes [2]; hour 0.5 to 3.0, n=8): 1.94
AHF Rx/BL, LAT-A eye (living monkey eyes [2]; hour 0.5 to 3.0, n=8): 1.82
AHF Rx/BL, LAT-A/Vehicle (living monkey eyes [2]; hour 0.5 to 3.0, n=8): 1.87
ka Rx, LAT-A eye (living monkey eyes [2]; hour 0.5 to 3.0, n=8): 0.00996 min⁻¹
ka Rx, LAT-A/Vehicle (living monkey eyes [2]; hour 0.5 to 3.0, n=8): 2.15
ka Rx/BL, LAT-A eye (living monkey eyes [2]; hour 0.5 to 3.0, n=8): 1.84
ka Rx/BL, LAT-A/Vehicle (living monkey eyes [2]; hour 0.5 to 3.0, n=8): 2.06
AHF Rx, LAT-A eye (living monkey eyes [2]; hour 0.5 to 6.0, n=8): 2.65 microliters per minutes
AHF Rx, LAT-A/Vehicle (living monkey eyes [2]; hour 0.5 to 6.0, n=8): 1.51
AHF Rx/BL, LAT-A eye (living monkey eyes [2]; hour 0.5 to 6.0, n=8): 1.38
AHF Rx/BL, LAT-A/Vehicle (living monkey eyes [2]; hour 0.5 to 6.0, n=8): 1.51
ka Rx, LAT-A eye (living monkey eyes [2]; hour 0.5 to 6.0, n=8): 0.00961 min⁻¹
ka Rx, LAT-A/Vehicle (living monkey eyes [2]; hour 0.5 to 6.0, n=8): 1.98
ka Rx/BL, LAT-A eye (living monkey eyes [2]; hour 0.5 to 6.0, n=8): 1.72
ka Rx/BL, LAT-A/Vehicle (living monkey eyes [2]; hour 0.5 to 6.0, n=8): 1.94
AHF Rx, LAT-A eye (living monkey eyes [2]; hour 3.5 to 6.0, n=8): 1.87 microliters per minutes
AHF Rx, LAT-A/Vehicle (living monkey eyes [2]; hour 3.5 to 6.0, n=8): 1.00
AHF Rx/BL, LAT-A eye (living monkey eyes [2]; hour 3.5 to 6.0, n=8): 1.00
AHF Rx/BL, LAT-A/Vehicle (living monkey eyes [2]; hour 3.5 to 6.0, n=8): 1.01
ka Rx, LAT-A eye (living monkey eyes [2]; hour 3.5 to 6.0, n=8): 0.00925 min⁻¹
ka Rx, LAT-A/Vehicle (living monkey eyes [2]; hour 3.5 to 6.0, n=8): 1.69
ka Rx/BL, LAT-A eye (living monkey eyes [2]; hour 3.5 to 6.0, n=8): 1.59
ka Rx/BL, LAT-A/Vehicle (living monkey eyes [2]; hour 3.5 to 6.0, n=8): 1.68
facility increase, control (non-disinserted) eyes ([3]; Lat-A 5.0 μM): 328±35%
Facility PRx, CM Dis eye ([3]; Lat-A 5.0 μM OU, n=9): 0.65 ± 0.23 μl/min/mmHg
Facility PRx, CM Dis/Cont ([3]; Lat-A 5.0 μM OU, n=9): 0.43 ± 0.15
Facility PRx, Cont (non-disinserted, drug-treated) eye ([3]; Lat-A 5.0 μM OU, n=9): 1.51 ± 0.30 μl/min/mmHg
PRx/BL, CM Dis eye ([3]; Lat-A 5.0 μM OU, n=9): 4.53 ± 1.29
PRx/BL, CM Dis/Cont ([3]; Lat-A 5.0 μM OU, n=9): 1.06 ± 0.27
PRx/BL, Cont (non-disinserted, drug-treated) eye ([3]; Lat-A 5.0 μM OU, n=9): 4.28 ± 0.35
facility increase, ciliary muscle-disinserted eyes ([3]; Lat-A 5.0 μM, n=9): 353±129%
[fluorescein]cornea, LAT-A-treated vs vehicle-treated eyes (living monkey eyes [4]; 15 min after i.v. fluorescein (1.25 hr after LAT-A)): ~10 times
[fluorescein]cornea, LAT-A-treated vs vehicle-treated eyes (living monkey eyes [4]; 240 min after i.v. fluorescein): ~1.5 times
[Fluorescein]AC higher in LAT-A eyes than in vehicle-treated eyes (living monkey eyes [4]; 240 min after i.v. fluorescein, n=4): 24±3%
[Protein]AC vs vehicle-treated eyes (living monkey eyes [5]; 5.5 hr): no difference in protein concentration
[Protein]AC higher than in vehicle-treated eyes (living monkey eyes [5]; two hr, n=7): 25±9%

— US6586425B2, “Cytoskeletal active agents for glaucoma therapy” (Wisconsin Alumni Research Foundation, priority 1996, dated 2003)
